Data taken from patent US20130059793A1, “EGF RECEPTOR MIMICKING PEPTIDES” (BOARD OF REGENTS, THE UNIVERSITY OF TEXAS SYSTEM, priority 2010, published 2013).
Square brackets hold non-standard residues; d marks the D form. Ends that are not written are not given here.

Assays:
[1] = tested on: EGFR ligands EGF, TGFα, and cetuximab; assay: Combinatorial CX7C phage library screening on EGFR ligands; consensus motifs (Table 1); type: binding; conditions: EGFR ligand(s) on which the overlapping consensus motif was selected
Method: Phage peptide screening and binding assays were performed as described (Cardó-Vila et al., 2003). A random phage peptide library displaying the insert CX7C (where X is any amino acid and C is a cysteine residue) was used for the screening; phage input was 3×10^9 transducing units (TU). Antibodies, EGF, or TGF-α (R&D Systems) were coated onto microtiter wells as described (Smith and Scott, 1993). […] Wells were washed twice with PBS, blocked with PBS containing 3% BSA for 1 hr at room temperature (RT), and incubated with the phage library in 50 μl PBS containing 1.5% BSA. After 2 hr at RT, wells were washed ten times with PBS, and phage were recovered by bacterial infection as described (Smith and Scott, 1993; Giordano et al., 2001; Cardó-Vila et al., 2003). […] Purification of phage particles and sequencing of phage single-stranded (ss) DNA were performed as described (Arap et al., 1998; Pasqualini et al., 2001). Phage ssDNA from 96 individual clones from each of the second, third, and fourth rounds of selection were prepared, and inserts were sequenced.
Peptide-matching software (Mandava et al., 2004) was used to identify motifs resembling targeted ligands. To identify motifs resembling targeted ligands among the selected sequences, the inventors used a peptide-matching software program based on RELIC, an established bioinformatics server for combinatorial peptide analysis and identification of protein-ligand interaction sites (Mandava et al., 2004), designed and implemented through Perl 5.8.1. The program calculates similarity based on a pre-defined amino acid window size (defined empirically and experimentally) between an affinity-selected peptide sequence and the target protein sequence from N-terminus to C-terminus in one-residue shifts to fit the best alignment. The peptide-protein similarity scores for each amino acid residue were calculated based on an amino acid substitution matrix modified to adjust for rare residue representation. In this case, similarity scores were calculated based on a 5-residue window, with every pentamer motif in each selected peptide compared to each pentamer segment of the protein. Empirical similarity score thresholds were set with at least three identical residues plus one similar residue between the peptide and the protein segment.
A combinatorial approach was used to identify consensus protein-interacting sites within the EGFR. […] Serial enrichment in all selections was observed (FIGS. 1A-C). Bovine serum albumin (BSA), VEGF, and irrelevant IgG served as negative controls.
A comprehensive protein similarity analysis of selected peptides (n=384) was performed to identify sequences resembling the extracellular domain of the EGFR. Overlapping consensus motifs selected in all three EGFR ligands were identified, mapped, and consolidated within the five dominant candidate regions (Cys227-Cys240, Cys283-Asp290, Cys486-Cys491, Cys547-Cys567, Cys604-Lys618; not accounting for the signal peptide, as indicated) within the primary structure of the receptor (FIG. 2A, yellow highlights).

[2] = tested on: cetuximab; assay: Binding of synthetic peptides to cetuximab (ELISA-based, FIG. 3A, FIG. 4B); conditions: FIG. 4B (peptides plated at 10 μg/ml)
Text: (§1) BSA served as an additional negative control, and the EGFR, as a positive control. […] Insertless phage served as a negative control. […] Bars represent mean±SEM.
(§2) A representative experiment is depicted. […] Bars represent mean±SEM. […] (FIG. 4C) Effect of the synthetic peptides on HN5 tumor cells. […] Viability in the absence of peptide was set to 100%. […] Bars represent mean±SEM. […] Receptors were immunoprecipitated with antibodies against phosphorylated (p) pEGFR and were immunoblotted with anti-phosphotyrosine IgG.
(§3) The EGFR served as an immobilized positive control, and BSA or control peptides (CVAAC) served as immobilized negative controls.

[3] = tested on: binding of cetuximab to the EGFR; assay: ELISA inhibition of binding of cetuximab to the EGFR by synthetic peptides (FIG. 3B, FIGS. 7A-C); conditions: for inhibition of binding of cetuximab to the EGFR: ELISA, FIG. 3B; for initial functional screen of consensus motif panel (n=15) with cetuximab: FIGS. 7A-C
Text: as §1
Similar methodologies have been applied to therapeutic (Binder et al., 2006; Binder et al., 2007; Riemer et al., 2005) or diagnostic (Jaalouk et al., 2007) antibodies in a strategy that could reveal mechanisms of action (Binder et al., 2007), identify biological reagents for immunization (Riemer et al., 2005), or discover unrecognized antigens (Jaalouk et al., 2007).

[4] = Nuclear magnetic resonance (NMR)-spectroscopy interactions; type: binding
[5] = tested on: HN5 tumor cells; assay: Cell viability/proliferation, MTT assay, HN5; type: cell-based, human; parameters: cell proliferation / viability: dose or concentration left out as unconfirmed; conditions: HN5, MTT, 120 h, increasing concentrations, FIG. 4C
Method: as §2
(§4) Tumor cell lines HN5, UMSCC 10A, GEO and EF43.fgf-4 were culture in standard conditions. Viability was assessed by MTT assays (Sigma) as described (Cardó-Vila et al., 2003). […] Samples were read at 570 nm.
Tumor cell lines HN5, UMSCC 10A, GEO and EF43.fgf-4 were maintained in high-glucose DMEM, supplemented with 10% heat-inactivated fetal bovine serum, 20 mM HEPES (pH 7.4), 100 IU/ml penicillin, 100 μg/ml streptomycin, and 4 mM glutamine at 5% CO2 at 37° C. EF43.fgf-4 were grown in G418 as described (Hajitou et al., 2006).

[6] = tested on: HN5 tumor cells; assay: Inhibition by peptide of the cetuximab-dependent inhibition of proliferation, HN5; type: cell-based, human; conditions: HN5, with cetuximab; 60 μM or 180 μM CVRAC, FIG. 4A
Method: as §2, §4

[7] = tested on: GEO tumor cells; assay: Inhibition by peptide of the cetuximab-dependent inhibition of proliferation, GEO; type: cell-based, human; conditions: with cetuximab
Method: as §4

[8] = tested on: EF43.fgf-4-derived tumors; assay: Treatment of tumor-bearing mice with peptides and peptidomimetics, tumor volume; type: in vivo; conditions: Balb/c mice, EF43.fgf-4 tumors, 750 μg/mouse/dose
Text: FIGS. 5A-B: CVRAC-targeted phage homes to tumor. (FIG. 5A) Targeting tumors versus control organs. […] An anti-phage antibody was used for staining H&E staining, with the corresponding fluorescence-based immunostaining, are shown in tumors (FIG. 5A). Tumor-bearing mice received CVRAC phage, CVAAC phage, or insertless control phage as indicated. Cohorts of tumor-bearing mice (n=5 mice/group) were used. A representative experiment is shown. Scale bar, 100 μm. (FIG. 5B) Treatment of tumor-bearing mice with peptides and peptidomimetics. Balb/c mice bearing EF43.fgf-4-derived tumors were divided into size-matched cohorts (n=7 mice/group); individual tumor volumes are represented before (black circles) and after (white circles). Peptides and peptidomimetics were administered at 750 μg/mouse/dose for 5 days. Shown are mean tumor volumes±SEM.
Selective phage homing to tumors was evaluated as described (Hajitou et al., 2006; Arap et al., 1998). […] Each cohort of mice (n=3 per experiment) with size-matched tumors received a set of test and control phage clones. After 6 h, tumor-bearing mice were perfused through the heart with 20 ml of PBS containing 4% paraformaldehyde (PFA). […] For experimental therapy, Balb/c mice bearing EF43.fgf-4-derived tumors were established, and tumor volumes were determined as described (Arap et al., 1998; Hajitou et al., 2006; Ciardiello et al., 1999). […]

[9] = tested on: polyclonal anti-CVRAC antibodies; assay: ELISA recognition of peptides by polyclonal anti-CVRAC antibodies (FIG. 4B); type: binding, rabbit
Text: as §2
Rabbits were immunized with KLH-conjugated CVRAC and a purified antibody was obtained. […] The capacity of rabbit IgG against CVRAC to recognize CVRAC, D(CARVC), and EGFR was measured by ELISA.
as §3

[10] = tested on: EGFR; assay: EGF-induced EGFR autophosphorylation (immunoprecipitation, anti-phosphotyrosine blot); type: cell-based, human; conditions: HN5 tumor cells, EGF 15 min, FIG. 4E
Text: as §2

With “AQQCSGRCRGKSPSD [synthetic EGFR-mimicking peptide]” the Selected on [1] was “EGF & TGFα”.

With “CKDTC [synthetic EGFR-mimicking peptide]” the Selected on [1] was “All EGFR ligands”.

For “CLPQAMNIT [synthetic EGFR-mimicking peptide]”, the Selected on [1] was “Cetuximab”.

For “CPAGVM [synthetic EGFR-mimicking peptide]”, the Selected on [1] was “Cetuximab”.

For CQKCDPSC, the Selected on [1] was “Cetuximab & TGFα”.

With “CRKFRDEATC [synthetic EGFR-mimicking peptide]” the Selected on [1] was “All EGFR ligands”.

For “CSPEGC (also: cyclic, ring type not given here) [synthetic EGFR-mimicking peptide]”, the Selected on [1] was “All EGFR ligands”.

With “CTGPGLEGCPTNGPK [synthetic EGFR-mimicking peptide]” the Selected on [1] was “All EGFR ligands”.

For “CTGRGPDNCIQ [synthetic EGFR-mimicking peptide]”, the Selected on [1] was “All EGFR ligands”.

With “CVRAC [synthetic cyclic peptide, EGFR residues 283-287]” the “binding of synthetic peptide to cetuximab” value [2] was “specifically bind to cetuximab”, the “inhibition of binding of cetuximab to the EGFR” value [3] was “Concentration-dependent inhibition” and the “initial functional screen of consensus motif panel (n=15) with cetuximab” value [3] was “not significantly different”. The “interactions by NMR-spectroscopy” value [4] was “Low-affinity interactions (micromolar range)”, the “cell proliferation / viability” value [5] was “proliferated much less” and the “inhibition of the antibody-dependent inhibition of proliferation” value [6] was “concentration-dependent inhibition”. For the same substance, the “inhibition of the antibody-dependent inhibition of proliferation” value [7] was “concentration-dependent inhibition”, the “therapeutic efficacy, tumor growth” value [8] was “showed therapeutic efficacy in vivo” and the “recognition by polyclonal anti-CVRAC antibodies” value [9] was “recognized”.

For “CVRACGAD (not fully specified (bridges); also: cyclic, ring type and places not given here) [synthetic cyclic peptide, EGFR residues 283-290]”, the Selected on [1] was “All EGFR ligands”, the “binding of synthetic peptide to cetuximab” value [2] was “specifically bind to cetuximab” and the “inhibition of binding of cetuximab to the EGFR” value [3] was “Concentration-dependent inhibition”. For the same substance, the “initial functional screen of consensus motif panel (n=15) with cetuximab” value [3] was “best concentration-dependent ligand peptide”.

In the case of “D(CAAVC) ([dC][dA][dA][dV][dC]; cysteine pairing not given here; also: peptidomimetic) [negative control peptidomimetic with a mutation corresponding to EGFR Arg285Ala, reference compound]”, the “EGF-induced tyrosine phosphorylation of the EGFR” value [10] is reported as “not”.

In the case of “IIRGRTK [synthetic EGFR-mimicking peptide]”, the Selected on [1] is reported as “EGF & TGFα”.

For “IQCAHYIDGPHC [synthetic EGFR-mimicking peptide]”, the Selected on [1] was “All EGFR ligands”.

In the case of “PNGSCW [synthetic EGFR-mimicking peptide]”, the Selected on [1] is reported as “Cetuximab”.

For “QRNYDLSFL [synthetic EGFR-mimicking peptide]”, the Selected on [1] was “EGF & TGFα”.

For “THTPPLDPQEL [synthetic EGFR-mimicking peptide]”, the Selected on [1] was “EGF & TGFα”.
